Reference: ChEMBL document CHEMBL1201862, “PubChem BioAssay data set” (2004)
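Five compound concentrations were applied to cells in 96-well plates for 48 hours; endpoints were derived by simple linear interpolation of the resulting dose-response curve. GI50 marks 50% less growth.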 The source made the active and inactive calls. Rule as the data show it: active = GI50 up to about 1.1 µM and inactive = higher.

How the values were obtained:
Test in all cases: growth of human tumour cells (NCI), 48 h
[1] = system: DU-145
[2] = system: HT-29
[3] = system: IGROV-1
[4] = system: KM12
[5] = system: MDA-MB-231
[6] = system: Malme-3M
[7] = system: NCI-H460
[8] = system: NCI-H522
[9] = system: OVCAR-8
[10] = system: SF-268
[11] = system: SF-295
[12] = system: SF-539
[13] = system: SK-MEL-5
[14] = system: SK-OV-3
[15] = system: SN12C
[16] = system: T47D
[17] = system: U-251
[18] = system: UACC-257
[19] = system: HOP-92
[20] = system: RXF 393

Row | Structure (SMILES) | GI50 [1] | GI50 [2] | GI50 [3] | GI50 [4] | GI50 [5] | GI50 [6] | GI50 [7] | GI50 [8] | GI50 [9] | GI50 [10] | GI50 [11] | GI50 [12] | GI50 [13] | GI50 [14] | GI50 [15] | GI50 [16] | GI50 [17] | GI50 [18] | GI50 [19] | GI50 [20]
1 | COC(=O)c1ccccc1CC1Cc2ccc3c(c2C1=O)CCCC3 (stereo not given) | 48.4 µM (inactive) | 20.4 µM (inactive) | > 100 µM (inactive) | 46.2 µM (inactive) | 29.7 µM (inactive) | 28.1 µM (inactive) | 68.5 µM (inactive) | 22.6 µM (inactive) | 43.3 µM (inactive) | 75.5 µM (inactive) | 32 µM (inactive) | 62.1 µM (inactive) | 15.5 µM (inactive) | > 95.9 µM (inactive) | 37.2 µM (inactive) | 13.8 µM (inactive) | 50.6 µM (inactive) | 29.5 µM (inactive) | – | –
2 | Cn1cnc([N+](=O)[O-])c1Sc1nncc2[nH]cnc12 | – | > 100 µM (inactive) | > 100 µM (inactive) | > 100 µM (inactive) | > 100 µM (inactive) | 28.8 µM (inactive) | – | > 100 µM (inactive) | > 100 µM (inactive) | – | > 100 µM (inactive) | > 100 µM (inactive) | > 100 µM (inactive) | > 100 µM (inactive) | > 100 µM (inactive) | > 100 µM (inactive) | > 100 µM (inactive) | > 100 µM (inactive) | > 100 µM (inactive) | –
3 | Cc1cn(Cc2ccccc2CCl)c(=O)[nH]c1=O | 13.1 µM (inactive) | 15.4 µM (inactive) | 3.46 µM (inactive) | 12.9 µM (inactive) | – | 21.3 µM (inactive) | 21.1 µM (inactive) | 6.34 µM (inactive) | 12.1 µM (inactive) | 13 µM (inactive) | 13.8 µM (inactive) | 5.56 µM (inactive) | 7.4 µM (inactive) | 26.4 µM (inactive) | 12.6 µM (inactive) | 11.5 µM (inactive) | 7.94 µM (inactive) | 13.4 µM (inactive) | 25.4 µM (inactive) | 8 µM (inactive)
4 | OC1(C(Sc2cc(C(F)(F)F)cc(C(F)(F)F)c2)Sc2cc(C(F)(F)F)cc(C(F)(F)F)c2)C=CCCC1 (stereo not given) | 2.53 µM (inactive) | 1.08 µM (active) | 2.38 µM (inactive) | 1.73 µM (inactive) | – | 2.77 µM (inactive) | 1.33 µM (inactive) | 1.74 µM (inactive) | 2.12 µM (inactive) | 2.54 µM (inactive) | 1.86 µM (inactive) | – | 9.53 µM (inactive) | 2.67 µM (inactive) | 2.14 µM (inactive) | 1.25 µM (inactive) | – | 1.2 µM (inactive) | 2.83 µM (inactive) | 1.75 µM (inactive)
5 | CS/C(C#N)=C(\C#N)SC | 13.6 µM (inactive) | 16.1 µM (inactive) | 6.25 µM (inactive) | 13.9 µM (inactive) | 24.7 µM (inactive) | 11.4 µM (inactive) | 21.4 µM (inactive) | 1.42 µM (inactive) | 2.74 µM (inactive) | 11.9 µM (inactive) | 18.5 µM (inactive) | 9.64 µM (inactive) | 18.2 µM (inactive) | – | 11.2 µM (inactive) | 4.19 µM (inactive) | 4.45 µM (inactive) | 10.9 µM (inactive) | – | 1.82 µM (inactive)
6 | O=S(=O)(Cc1ccccc1)c1nnc(S(=O)(=O)c2ccc(Cl)cc2)s1 | 17 µM (inactive) | 22.5 µM (inactive) | – | 25.7 µM (inactive) | 34.8 µM (inactive) | – | 21.2 µM (inactive) | 14 µM (inactive) | 19 µM (inactive) | 19.5 µM (inactive) | 24.1 µM (inactive) | 18.5 µM (inactive) | 17.9 µM (inactive) | 23.3 µM (inactive) | 20.2 µM (inactive) | 31.6 µM (inactive) | 33 µM (inactive) | 19.9 µM (inactive) | – | 17.3 µM (inactive)
